Each structure is given as a SMILES string.

One assay deals with FADU tumors. As to the kind of experiment: In vivo tumor growth delay study, FADU subcutaneous human xenograft mouse model. Here is the method: Female NCr nu/nu mice (Crl:NU(NCr)-Foxn1nu, Strain 490) were obtained from Charles River at 5-6 weeks of age.
(§1) FADU or MDA-MB-231 cells were harvested during log phase growth for in vivo implantation. The resuspended cells were washed three times in phosphate buffered saline (PBS) before preparing the working dilution in PBS. FADU cells were diluted to 1×10^7 cells/mL and MDA-MB-231 cells were diluted to 5×10^7 cells/mL. Each mouse was injected subcutaneously in the right flank with 100 μL of the cellular suspension. Tumor growth was monitored until the tumors reached a target volume of at least 100 mm^3, at which point mice were randomly stratified into four treatment groups.
Following implantation of the tumor cell lines, mice were monitored once weekly for tumor development. Upon detection, tumors were measured in two dimensions using digital calipers. Tumors were treated after reaching at least 100 mm^3 and were measured two to three times weekly following enrollment in one of the treatment groups. The study endpoint was defined as tumor quintupling from the volume at time of treatment.
The vehicle used in this study was 0.5% (Hydroxypropyl)methyl cellulose (HPMC) and 0.2% Tween80 dissolved in deionized water. The pH of the vehicle was adjusted to 7.0-8.0 and the vehicle was stored at 4° C. On each day of in vivo treatment an appropriate mass of test compound was added to the vehicle at room temperature. The mixture was vortexed as necessary to generate a final concentration of 1.6 mg/mL.
In vivo tumor growth delay study was performed as follows. Following implantation of the tumor cell lines, mice were monitored once weekly for tumor development. Upon development of a tumor measuring at least 100 mm^3, tumor-bearing mice were stratified to one of 4 groups, utilizing 5 mice per group. Tumor volumes were between 100 and 500 mm^3. Vehicle or compound 569 (10 mg/kg) were administered by oral gavage once daily for three consecutive days (qd×3), alone or in combination with focal radiation. The delivered volume of vehicle or compound 569 was adjusted based on body weight of the individual animals. […]
Prism (GraphPad) was used for graphical presentations. […] In order to adjust for the differing tumor sizes at the start of treatment, the relative tumor volume was calculated by dividing the tumor volume at each time point by the volume at baseline. […] When an animal exited the study due to tumor quintupling, the final tumor volume recorded for the animal was included with the data used to calculate the median volume at subsequent time points. […] Differences in quintupling-free survival between the four treatment groups were evaluated with a log-rank test. […]

The target in assay [1] is T1, ATM (Homo sapiens (Human), UniProt Q13315). As to the kind of experiment: Pharmacodynamic assay, pKAP1/KAP1 in MDA-231 tumors. It counts as in vivo. The method, then:
as §1
(§2) Tumor studies were performed as follows. Mice bearing FADU or MDA-231 tumors were pre-dosed with vehicle alone or compound 569 alone at 3, 6, and 10 mg/kg. Tumors were then irradiated with 10 Gy 45 min after vehicle or compound 569 administration or left unirradiated (vehicle and compound 569 at 10 mg/kg). Tumors were harvested 1 h post radiation.
(§3) Tissue homogenates for pharmacodynamic analyses were collected and processed as follows. Tumor tissues from FADU or MDA-MB-231 tumors were flash frozen in liquid nitrogen and pulverized on dry ice using a tissue pulverizer. A portion of the tumor powder was transferred into a microtube, followed by addition of 500 μL of RIPA buffer [[…], pH 8.0, 150 mM NaCl, 0.1% SDS, 0.5% sodium deoxycholate, 1% IGEPAL® CA-630 (Sigma, I8896)]. To 10 ml of RIPA buffer, 2 tablets each of Protease inhibitor and Phosphatase inhibitor (Roche, #04693159001 & #04906837001), 200 μL of 0.1 M PMSF and 160 μL of Aprotinin, (Sigma, A6279) were added. The suspension was homogenized on ice with a pellet pestle motor (KONTES) and incubated on ice for 30 minutes. Cell lysates were centrifuged at 13,200 rpm for 15 min at 4° C. and supernatants were transferred to a new tube and analyzed for protein concentration with a BCA kit (Pierce, 23227), followed by immunoblotting.

Assay [2] deals with T1, ATM. The assay is described as follows: Pharmacodynamic assay, pKAP1/KAP1 in FADU tumors. Particulars: for pKAP1/KAP1: FADU tumors. It is filed as in vivo. The method, then: as §1, §2, §3
The next assay concerns the target DNA-PK (Homo sapiens (Human), UniProt P78527). As to the kind of experiment: Pharmacodynamic assay, pDNA-PK/DNA-PK in FADU tumors. Conditions: for pDNA-PK/DNA-PK: FADU tumors. It counts as in vivo. The method, then:
as §1, §2, §3

T1 sequence (Q13315 whole entry): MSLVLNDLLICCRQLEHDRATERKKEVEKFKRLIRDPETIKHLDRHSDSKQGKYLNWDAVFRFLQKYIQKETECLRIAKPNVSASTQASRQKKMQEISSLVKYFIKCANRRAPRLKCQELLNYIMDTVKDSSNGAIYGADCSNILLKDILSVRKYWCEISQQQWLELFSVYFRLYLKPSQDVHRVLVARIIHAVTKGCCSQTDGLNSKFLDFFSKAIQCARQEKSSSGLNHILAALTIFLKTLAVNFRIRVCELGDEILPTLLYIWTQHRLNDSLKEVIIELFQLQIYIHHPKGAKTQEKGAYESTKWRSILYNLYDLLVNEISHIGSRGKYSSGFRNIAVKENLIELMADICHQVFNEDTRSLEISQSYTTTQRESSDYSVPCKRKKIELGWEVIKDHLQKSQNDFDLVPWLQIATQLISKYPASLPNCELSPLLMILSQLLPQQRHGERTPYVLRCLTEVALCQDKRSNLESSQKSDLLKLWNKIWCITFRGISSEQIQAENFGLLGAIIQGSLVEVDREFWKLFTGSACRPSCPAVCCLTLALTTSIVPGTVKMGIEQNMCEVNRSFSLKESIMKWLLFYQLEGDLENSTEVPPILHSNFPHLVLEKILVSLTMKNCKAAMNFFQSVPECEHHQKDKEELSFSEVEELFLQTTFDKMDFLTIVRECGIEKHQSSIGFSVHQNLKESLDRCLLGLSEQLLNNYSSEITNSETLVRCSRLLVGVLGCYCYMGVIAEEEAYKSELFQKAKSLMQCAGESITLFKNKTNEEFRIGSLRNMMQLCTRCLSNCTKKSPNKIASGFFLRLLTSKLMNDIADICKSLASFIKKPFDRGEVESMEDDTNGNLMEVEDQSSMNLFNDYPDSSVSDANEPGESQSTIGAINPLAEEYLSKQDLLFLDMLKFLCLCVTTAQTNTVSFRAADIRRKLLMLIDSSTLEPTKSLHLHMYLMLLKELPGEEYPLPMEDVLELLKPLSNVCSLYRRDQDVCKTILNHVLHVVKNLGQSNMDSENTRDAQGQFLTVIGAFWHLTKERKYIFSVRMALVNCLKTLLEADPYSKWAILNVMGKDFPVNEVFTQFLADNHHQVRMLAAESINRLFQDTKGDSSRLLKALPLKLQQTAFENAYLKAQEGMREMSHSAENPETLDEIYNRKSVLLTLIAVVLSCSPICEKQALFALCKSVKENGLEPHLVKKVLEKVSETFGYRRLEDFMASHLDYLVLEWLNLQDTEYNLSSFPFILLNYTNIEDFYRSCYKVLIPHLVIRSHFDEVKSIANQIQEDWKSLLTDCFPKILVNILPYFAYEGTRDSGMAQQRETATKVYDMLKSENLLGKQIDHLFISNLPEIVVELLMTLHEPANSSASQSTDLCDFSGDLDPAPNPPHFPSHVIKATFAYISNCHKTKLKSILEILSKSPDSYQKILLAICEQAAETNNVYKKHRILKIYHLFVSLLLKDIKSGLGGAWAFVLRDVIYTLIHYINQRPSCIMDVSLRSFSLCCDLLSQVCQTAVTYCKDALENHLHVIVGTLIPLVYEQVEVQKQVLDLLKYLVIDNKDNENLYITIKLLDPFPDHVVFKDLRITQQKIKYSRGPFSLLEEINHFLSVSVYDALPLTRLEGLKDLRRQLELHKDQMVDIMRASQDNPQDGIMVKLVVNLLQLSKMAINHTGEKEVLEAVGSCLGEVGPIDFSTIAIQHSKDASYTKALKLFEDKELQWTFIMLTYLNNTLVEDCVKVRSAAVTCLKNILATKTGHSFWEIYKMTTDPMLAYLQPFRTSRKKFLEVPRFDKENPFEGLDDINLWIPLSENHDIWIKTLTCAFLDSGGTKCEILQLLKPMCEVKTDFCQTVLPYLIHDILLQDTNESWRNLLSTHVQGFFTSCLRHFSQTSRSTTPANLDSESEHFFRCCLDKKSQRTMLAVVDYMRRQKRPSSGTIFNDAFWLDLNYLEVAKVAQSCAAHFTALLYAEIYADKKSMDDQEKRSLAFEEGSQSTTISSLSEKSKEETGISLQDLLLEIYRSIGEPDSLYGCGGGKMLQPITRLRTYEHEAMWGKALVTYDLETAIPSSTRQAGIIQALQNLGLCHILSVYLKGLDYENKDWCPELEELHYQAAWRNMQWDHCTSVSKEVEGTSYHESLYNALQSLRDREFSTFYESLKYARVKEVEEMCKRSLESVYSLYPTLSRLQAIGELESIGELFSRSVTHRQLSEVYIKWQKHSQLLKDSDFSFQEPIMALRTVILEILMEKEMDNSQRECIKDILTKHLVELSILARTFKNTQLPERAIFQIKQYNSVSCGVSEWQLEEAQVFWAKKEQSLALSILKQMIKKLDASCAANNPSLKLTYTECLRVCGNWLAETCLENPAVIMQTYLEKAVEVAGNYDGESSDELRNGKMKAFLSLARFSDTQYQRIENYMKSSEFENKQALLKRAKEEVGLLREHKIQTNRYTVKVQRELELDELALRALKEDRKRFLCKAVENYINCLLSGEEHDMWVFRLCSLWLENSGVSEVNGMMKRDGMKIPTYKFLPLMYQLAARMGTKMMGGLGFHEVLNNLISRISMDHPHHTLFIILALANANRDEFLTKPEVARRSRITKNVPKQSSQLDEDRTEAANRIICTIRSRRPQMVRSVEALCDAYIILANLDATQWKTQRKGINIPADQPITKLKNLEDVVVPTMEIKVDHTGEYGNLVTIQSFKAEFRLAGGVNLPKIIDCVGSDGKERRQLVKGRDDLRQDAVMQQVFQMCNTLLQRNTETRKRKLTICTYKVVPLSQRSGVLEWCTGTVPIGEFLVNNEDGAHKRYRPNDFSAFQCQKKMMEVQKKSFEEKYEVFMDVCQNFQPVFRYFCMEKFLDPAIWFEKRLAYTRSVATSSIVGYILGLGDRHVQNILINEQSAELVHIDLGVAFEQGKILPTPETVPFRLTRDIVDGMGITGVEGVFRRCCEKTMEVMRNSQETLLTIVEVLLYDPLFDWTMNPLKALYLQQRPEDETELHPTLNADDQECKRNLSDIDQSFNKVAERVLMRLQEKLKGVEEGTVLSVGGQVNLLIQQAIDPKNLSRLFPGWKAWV

The term inhibition denotes the relative decrease from the control value, in per cent. As to `CC(C)NCCOc1ncc(-c2cc3c4c(cnc3cc2F)N(C)C(=O)C42CCC2)cc1NS(C)(=O)=O` [Compound 569, N-(5-(7′-Fluoro-3′-methyl-2′-oxo-2′,3′-dihydrospiro[cyclobutane-1,1′-pyrrolo[2,3-c]quinolin]-8′-yl)-2-(2-(isopropylamino)ethoxy)pyridin-3-yl)methanesulfonamide], the “median time to endpoint (tumor quintupling)” value with FADU tumors (Group 2: Compound 569 10 mg/kg po qd×3 alone) is 14 days; with FADU tumors (Group 4: compound 569 10 mg/kg 45 min prior to 3 Gy focal radiation, qd×3) it was 42 days. Besides, the “tumor growth curves and quintupling-free survival” value with FADU tumors (Group 2: Compound 569 10 mg/kg qd×3 alone vs vehicle (Group 1)) is reported as “nearly identical to those for Group 1”. Also, the “overall survival (quintupling-free)” value in the assay with FADU tumors (Group 4: compound 569 + 3 Gy qd×3, P<0.01, logrank) was “significantly improved compared to Group 1, Group 2, and Group 3”. Moreover, the pKAP1/KAP1 is recorded as 0.327 on ATM [1] (10 Gy, 3 mg/kg oral); 0.0130 on ATM [1] (10 Gy, 6 mg/kg oral); 0.00901 at ATM [1] (10 Gy, 10 mg/kg oral); −0.00319 on ATM [1] (no radiation, 10 mg/kg oral); 0.0903 at ATM [2] (10 Gy, 3 mg/kg oral); 0.0982 at ATM [2] (10 Gy, 6 mg/kg oral). Also, the pKAP1/KAP1 stood at 0.156 at ATM [2] (10 Gy, 10 mg/kg oral) and 0.00595 on ATM [2] (no radiation, 10 mg/kg oral). The inhibition at 10 mg/kg on ATM [2] (10 mg/kg, 10 Gy, FADU and MDA231 tumors (FIGS. 4 and 5), read-out: inhibition of tumor levels of radiation-induced phosphorylation of KAP1) was > 80%; at DNA-PK (10 mg/kg, 10 Gy, FADU and MDA231 tumors (FIGS. 4 and 5), read-out: inhibition of tumor levels of radiation-induced autophosphorylation of DNA-PK), ~55%. Further, the pDNA-PK/DNA-PK on DNA-PK (10 Gy, 3 mg/kg oral) was 0.938; at DNA-PK (10 Gy, 6 mg/kg oral), 0.658; on DNA-PK (10 Gy, 10 mg/kg oral), 0.476; on DNA-PK (no radiation, 10 mg/kg oral), 0.343. Further, on DNA-PK (no radiation, 10 mg/kg), the “basal phosphorylation of DNA-PK in tumors” value was “inhibited”.

The values above are taken from patent US20250268873A1, “COMBINATION OF DUAL ATM AND DNA-PK INHIBITORS AND IMMUNOTHERAPEUTIC AGENTS FOR USE IN CANCER THERAPY” (XRAD THERAPEUTICS, INC., priority 2021, published 2025).
